Results taken from patent US20120141788A1, “PROCESS AND DEVICE FOR THE PRECIPITATION OF AN ORGANIC COMPOUND” (Fujifilm Manufacturing Europe B.V., priority 2006, published 2012).

Tests used:
[1] = Particle size distribution of the precipitate measured with a Malvern Mastersizer 2000; type: physicochemical; details: precipitated particles; for D50 of this batch / D90 of this batch: ethanol/water, Malvern Mastersizer 2000
Description: Preferably, the precipitated organic compound is in particulate form and has a D50 of less than 500 nm, more preferably less than 400 nm, even more preferably of less than 300 nm, and in particular less than 200 nm. The D50 can be measured by techniques known in the art, e.g. laser diffraction according to method ISO 13320-1 using e.g. a Malvern Mastersizer 2000 particle size analyser.
The particle size distribution is wide, including many particles of 10 μm edge length or more. […] The D50 of this batch is 14.59 μm. So 50% of all particles have a volume median size which is smaller than 14.59 μm. The D90 of this batch is 36.22 μm.
Particle size distribution was measured with a Malvern Mastersizer 2000. The D50 of this batch is 9.17 μm. The D90 of this batch is 18.72 μm. (FIG. 8)

[2] = Saturation concentration in ethanol; type: physicochemical; details: 325 K

SMILES	particle size distribution (shape, in words) [1]	D50 of this batch [1] [μm]	D90 of this batch [1] [μm]	saturation conc. in EtOH [2] [g/L]
CC(=O)[C@H]1CC[C@H]2[C@@H]3CC=C4C[C@@H](O)CC[C@]4(C)[C@H]3CC[C@]12C [Comparative Example 1, pregnenolone]	wide	14.59	36.22	
CC(=O)[C@H]1CC[C@H]2[C@@H]3CC=C4C[C@@H](O)CC[C@]4(C)[C@H]3CC[C@]12C [Comparative Example 3, pregnenolone]	narrower particle size distribution than Comparative Example 2	9.17	18.72	
CC(=O)[C@H]1CC[C@H]2[C@@H]3CC=C4C[C@@H](O)CC[C@]4(C)[C@H]3CC[C@]12C [Inventive Example 1, pregnenolone]	narrow	9.17	18.72	
CC(=O)[C@H]1CC[C@H]2[C@@H]3CC=C4C[C@@H](O)CC[C@]4(C)[C@H]3CC[C@]12C [pregnenolone]				34
